Assays:
[1] = tested on: Pseudomonas aeruginosa ATCC 27853; test: Growth inhibition around wells on LB agar plates; type: cell-based; settings: Ps. aeruginosa ATCC 27853
Method in brief: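 Activity against Pseudomonas aeruginosa ATCC 27853 was assessed by agar well diffusion on LB plates. A suspension of about 10^8 cells/ml in 0.9% NaCl was spread over the agar and the excess removed. Once the surface had dried, 2 mm wells were drilled and filled with peptide dissolved in 0.9% NaCl. Plates were incubated 18 h at 37° C, and inhibition zone diameters were converted to areas in square mm.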

[2] = tested on: E. coli; settings: Sakura et al. (2004); cited from earlier work
[3] = tested on: E. coli IH3080; test: Sensitization to rifampin: growth inhibition around wells on LB plates containing rifampin; type: cell-based, Escherichia coli; settings: 4 μg of compound
[4] = tested on: E. coli IH3080; test: Growth inhibition around wells on LB agar plates; type: cell-based, Escherichia coli
Method in brief: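 Growth inhibition of encapsulated E. coli IH3080 (K1:O018) was assessed on LB agar plates. A suspension of about 10^8 cells/ml in 0.9% NaCl, made from an overnight LB agar culture, was spread across the plate surface and the excess removed. After drying, 2 mm wells were drilled, with 0.9% NaCl as control. Following 18 h at 37° C., inhibition zone diameters around wells were converted to areas in square mm.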

[5] = tested on: Ps. aeruginosa ATCC 27853; test: Sensitization to rifampin: growth inhibition around wells on LB plates containing rifampin; type: cell-based, Pseudomonas aeruginosa; settings: 4 μg

In the case of “octanoyl polymyxin B heptapeptide [Octanoyl PMBH, reference compound]”, the “growth inhibition around a well” value ([1]; 4 μg) is listed as 0 square millimeters, the “growth inhibition around a well” value ([1]; 10 μg) is listed as 13 square millimeters and the “concentration needed to inhibit the growth of bacteria” value [2] is listed as 128 µg/mL. For the same substance, the “growth inhibition around a well in the presence of rifampin” value ([3]; rifampin 0 μg/ml) was 0 square millimeters, the “growth inhibition around a well in the presence of rifampin” value ([3]; rifampin 0.1 μg/ml) was 0 square millimeters and the “growth inhibition around a well in the presence of rifampin” value ([3]; rifampin 1.0 μg/ml) was 38 square millimeters. For the same substance, the “growth inhibition around a well” value ([4]; 4 μg of compound per well) was 0 square millimeters, the “growth inhibition around a well” value ([4]; 10 μg of compound per well) was 0 square millimeters and the “growth inhibition around a well in the presence of rifampin” value ([5]; rifampin 0 μg/ml) was 0 square millimeters. The “growth inhibition around a well in the presence of rifampin” value ([5]; rifampin 0.1 μg/ml) was 13 square millimeters and the “growth inhibition around a well in the presence of rifampin” value ([5]; rifampin 0.3 μg/ml) was 13 square millimeters.

Reference: US8329645B2, “Polymyxin derivatives and uses thereof” (priority 2008, dated 2012)
